What was measured:
TrkA = target: T1, TrkA (Homo sapiens, UniProt P04629); assay: Kinase inhibitory activity (33P-ATP, filtration-binding method, Reaction Biology Corp.); format: biochemical; conditions: read-out: Half maximal inhibitory concentration IC50 for kinases, TrkA
T1 construct: purchased Reaction Biology Corp
Method: (§1) The mixture was incubated at room temperature for 20 minutes, added with ^33P-ATP at a certain concentration to start the reaction, and then incubated at room temperature for 120 minutes. Finally, the radioactivity of the reactant was detected by the filtration-binding method. The final kinase activity was expressed as the ratio of the remaining kinase activity in the test sample to the kinase activity of the DMSO control. The dose-response curves were fitted and IC50 values were calculated by GraphPad software.

Ros1 = target: T2, Ros1 (Homo sapiens, UniProt P08922); assay: as above; format: biochemical; conditions: read-out: Half maximal inhibitory concentration IC50 for kinases, Ros1
T2 construct: purchased Reaction Biology Corp
Method: as §1

TrkA-G667C = target: T3, TrkA-G667C (Homo sapiens, UniProt P04629, G667C); assay: as above; format: biochemical; conditions: read-out: Half maximal inhibitory concentration IC50 for kinases, TrkA-G667C
T3 construct: purchased Reaction Biology Corp
T3 sequence (P04629 33-796 G667C): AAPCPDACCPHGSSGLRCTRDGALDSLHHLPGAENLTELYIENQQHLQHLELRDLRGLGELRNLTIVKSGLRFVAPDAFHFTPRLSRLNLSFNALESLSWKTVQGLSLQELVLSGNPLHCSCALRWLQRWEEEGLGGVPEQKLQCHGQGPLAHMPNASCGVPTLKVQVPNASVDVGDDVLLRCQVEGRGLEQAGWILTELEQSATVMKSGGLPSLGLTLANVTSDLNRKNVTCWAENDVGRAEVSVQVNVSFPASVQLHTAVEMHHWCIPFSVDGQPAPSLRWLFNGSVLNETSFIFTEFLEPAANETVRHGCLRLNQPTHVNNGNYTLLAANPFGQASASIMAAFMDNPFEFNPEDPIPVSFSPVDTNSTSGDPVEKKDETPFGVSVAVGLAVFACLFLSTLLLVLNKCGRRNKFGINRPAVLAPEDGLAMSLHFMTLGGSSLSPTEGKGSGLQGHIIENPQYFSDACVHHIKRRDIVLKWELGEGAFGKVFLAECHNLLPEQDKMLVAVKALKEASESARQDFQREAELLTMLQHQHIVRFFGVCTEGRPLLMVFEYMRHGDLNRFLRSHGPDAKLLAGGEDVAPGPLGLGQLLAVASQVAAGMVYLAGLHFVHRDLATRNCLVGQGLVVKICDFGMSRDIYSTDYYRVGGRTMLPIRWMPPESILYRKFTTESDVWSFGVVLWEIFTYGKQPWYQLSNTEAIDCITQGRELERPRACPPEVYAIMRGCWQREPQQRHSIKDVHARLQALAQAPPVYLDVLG
Method: as §1

TrkA-G595R = target: T4, TrkA-G595R (Homo sapiens, UniProt P04629, G595R); assay: as above; format: biochemical; conditions: read-out: Half maximal inhibitory concentration IC50 for kinases, TrkA-G595R
T4 construct: purchased Reaction Biology Corp
T4 sequence (P04629 33-796 G595R): as the sequence (P04629 33-796 G667C) above, with G563R, C635G counted along it
Method: as §1

TrkC = target: T5, TrkC (Homo sapiens, UniProt Q16288); assay: as above; format: biochemical; conditions: read-out: Half maximal inhibitory concentration IC50 for kinases, TrkC
T5 construct: purchased Reaction Biology Corp
T5 sequence (Q16288 32-839): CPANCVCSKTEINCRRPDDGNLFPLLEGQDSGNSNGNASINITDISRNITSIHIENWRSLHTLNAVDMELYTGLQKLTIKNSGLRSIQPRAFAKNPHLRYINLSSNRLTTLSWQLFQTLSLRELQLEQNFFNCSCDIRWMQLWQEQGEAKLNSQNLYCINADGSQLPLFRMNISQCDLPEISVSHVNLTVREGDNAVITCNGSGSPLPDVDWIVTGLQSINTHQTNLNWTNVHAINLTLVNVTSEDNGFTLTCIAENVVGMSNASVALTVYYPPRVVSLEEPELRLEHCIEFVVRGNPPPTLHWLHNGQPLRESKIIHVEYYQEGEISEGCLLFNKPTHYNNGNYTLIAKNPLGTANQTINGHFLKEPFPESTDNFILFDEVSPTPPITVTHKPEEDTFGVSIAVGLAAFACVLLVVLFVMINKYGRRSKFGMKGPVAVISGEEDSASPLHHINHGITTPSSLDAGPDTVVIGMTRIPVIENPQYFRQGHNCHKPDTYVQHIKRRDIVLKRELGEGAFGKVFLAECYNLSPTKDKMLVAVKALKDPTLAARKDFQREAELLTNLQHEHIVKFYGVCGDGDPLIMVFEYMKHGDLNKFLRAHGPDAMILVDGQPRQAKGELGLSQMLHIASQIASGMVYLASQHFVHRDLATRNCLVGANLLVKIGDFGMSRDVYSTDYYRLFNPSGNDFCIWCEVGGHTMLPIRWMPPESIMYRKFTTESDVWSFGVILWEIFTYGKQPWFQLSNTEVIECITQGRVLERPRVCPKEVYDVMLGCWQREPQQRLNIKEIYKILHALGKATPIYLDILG
Method: as §1

ALK = target: T6, ALK (Homo sapiens, UniProt Q9UM73); assay: as above; format: biochemical; conditions: read-out: Half maximal inhibitory concentration IC50 for kinases, ALK
T6 construct: purchased Reaction Biology Corp
T6 sequence (Q9UM73 19-1620): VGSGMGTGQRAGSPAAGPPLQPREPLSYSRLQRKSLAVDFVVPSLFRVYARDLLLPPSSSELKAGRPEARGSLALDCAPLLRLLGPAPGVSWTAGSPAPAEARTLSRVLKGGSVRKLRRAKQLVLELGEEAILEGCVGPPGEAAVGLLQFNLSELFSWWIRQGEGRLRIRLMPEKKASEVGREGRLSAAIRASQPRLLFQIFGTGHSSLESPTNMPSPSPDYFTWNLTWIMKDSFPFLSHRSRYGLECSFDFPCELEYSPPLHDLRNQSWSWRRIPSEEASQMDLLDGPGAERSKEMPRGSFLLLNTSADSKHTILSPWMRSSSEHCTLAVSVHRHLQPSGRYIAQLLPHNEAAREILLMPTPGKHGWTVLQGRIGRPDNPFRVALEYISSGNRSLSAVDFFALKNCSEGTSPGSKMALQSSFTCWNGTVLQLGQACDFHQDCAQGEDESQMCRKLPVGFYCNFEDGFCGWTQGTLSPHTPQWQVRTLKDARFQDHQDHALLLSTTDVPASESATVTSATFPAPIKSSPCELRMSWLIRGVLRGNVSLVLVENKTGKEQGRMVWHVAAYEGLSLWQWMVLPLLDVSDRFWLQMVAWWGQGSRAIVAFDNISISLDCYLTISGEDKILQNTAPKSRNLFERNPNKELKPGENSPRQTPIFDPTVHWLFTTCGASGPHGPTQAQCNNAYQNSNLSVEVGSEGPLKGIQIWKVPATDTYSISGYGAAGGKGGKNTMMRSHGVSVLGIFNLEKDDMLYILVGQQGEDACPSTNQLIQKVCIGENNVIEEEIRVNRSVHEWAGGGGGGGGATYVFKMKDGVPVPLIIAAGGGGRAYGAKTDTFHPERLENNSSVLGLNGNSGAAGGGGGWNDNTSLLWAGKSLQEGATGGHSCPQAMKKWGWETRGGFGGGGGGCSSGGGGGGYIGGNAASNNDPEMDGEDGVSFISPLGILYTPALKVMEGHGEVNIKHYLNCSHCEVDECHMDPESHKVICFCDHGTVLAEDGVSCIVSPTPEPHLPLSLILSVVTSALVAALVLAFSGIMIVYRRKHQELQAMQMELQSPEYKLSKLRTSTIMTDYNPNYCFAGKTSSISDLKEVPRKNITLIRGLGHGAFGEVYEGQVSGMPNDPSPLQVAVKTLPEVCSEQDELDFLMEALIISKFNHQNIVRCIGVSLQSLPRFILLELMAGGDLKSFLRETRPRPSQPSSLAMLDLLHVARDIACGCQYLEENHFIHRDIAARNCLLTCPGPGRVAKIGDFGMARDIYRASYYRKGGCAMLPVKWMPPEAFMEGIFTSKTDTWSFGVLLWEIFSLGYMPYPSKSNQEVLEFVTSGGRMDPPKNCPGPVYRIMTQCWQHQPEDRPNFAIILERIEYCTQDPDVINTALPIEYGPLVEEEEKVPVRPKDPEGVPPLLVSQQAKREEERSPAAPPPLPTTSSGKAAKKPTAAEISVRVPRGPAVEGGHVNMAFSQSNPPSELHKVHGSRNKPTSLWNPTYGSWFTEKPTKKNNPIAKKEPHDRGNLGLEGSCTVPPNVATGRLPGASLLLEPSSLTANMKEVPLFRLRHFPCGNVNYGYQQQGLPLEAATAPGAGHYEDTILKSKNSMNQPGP
Method: as §1

Ba/F3 LMNA-NTRK1-WT = target: T7, Ba/F3 LMNA-NTRK1-WT (Homo sapiens, UniProt P04629); assay: Inhibitory activity against cell proliferation (CellTiter-Glo, 72 hours); format: cell-based; conditions: read-out: Half maximal inhibitory concentration IC50 of cells, Ba/F3 LMNA-NTRK1-WT
T7 construct: fused on or other part: N-terminal part of LMNA as fusion partner (part of the key); P02545 (Prelamin-A/C)
T7 sequence (P04629 whole entry, stated change not applied, the tested form may be a part): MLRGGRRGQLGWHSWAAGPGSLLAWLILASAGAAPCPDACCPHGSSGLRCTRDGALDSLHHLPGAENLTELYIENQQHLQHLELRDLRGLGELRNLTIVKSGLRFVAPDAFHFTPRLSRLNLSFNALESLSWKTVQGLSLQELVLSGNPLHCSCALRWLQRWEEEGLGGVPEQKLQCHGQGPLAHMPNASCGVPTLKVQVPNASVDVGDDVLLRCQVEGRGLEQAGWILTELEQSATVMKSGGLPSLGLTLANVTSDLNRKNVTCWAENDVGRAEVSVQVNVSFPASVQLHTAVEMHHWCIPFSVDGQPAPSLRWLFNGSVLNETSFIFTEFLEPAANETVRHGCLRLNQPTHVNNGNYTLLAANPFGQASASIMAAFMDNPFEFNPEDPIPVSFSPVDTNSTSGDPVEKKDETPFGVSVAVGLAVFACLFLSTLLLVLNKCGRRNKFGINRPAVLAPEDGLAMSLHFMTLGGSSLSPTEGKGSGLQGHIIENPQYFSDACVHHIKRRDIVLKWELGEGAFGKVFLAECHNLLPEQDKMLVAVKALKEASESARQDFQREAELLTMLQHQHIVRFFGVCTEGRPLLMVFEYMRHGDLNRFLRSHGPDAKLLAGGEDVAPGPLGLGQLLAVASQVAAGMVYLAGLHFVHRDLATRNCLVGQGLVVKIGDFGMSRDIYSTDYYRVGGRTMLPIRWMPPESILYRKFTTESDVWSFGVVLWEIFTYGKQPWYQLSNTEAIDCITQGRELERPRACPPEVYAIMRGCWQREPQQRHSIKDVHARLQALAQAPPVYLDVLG
Method: (§2) Adenosine Triphosphate (ATP) is an energy carrier commonly used in various life activities in nature, and is the minimum unit for energy storage and transfer. The CellTiter-Glo™ cell viability assay kit uses luciferase as an assay agent, which requires the involvement of ATP in luminescence. The CellTiter-Glo™ reagent is added into cell culture medium to measure the luminescence value. The luminescence signal is directly proportional to the amount of ATP in the system, and the ATP is positively correlated with the number of viable cells. Therefore, the proliferation of cells can be detected by detecting the ATP content using the CellTiter-Glo kit.
(§3) a) Cells in the logarithmic growth phase were collected and counted using a […]. The cell viability was detected by the trypan blue exclusion method, and the cell viability was kept over 90%.
(§4) b) The cell concentration was adjusted; 90 μL of the cell suspension was added to a 96-well plate.
(§5) a) A 10-fold compound solution was prepared, with the highest concentration being 10 μM (a total of 9 concentrations, 3-fold dilution). 10 μL of compound solution was added to each well of a 96-well plate inoculated with cells, and three duplicate wells were set for each compound concentration.
(§6) a) The CTG reagent was thawed and the cell plate was equilibrated to room temperature for 30 minutes.
(§7) b) An equal volume of CTG solution was added to each well.
(§8) c) The plate was shaken on an orbital shaker for 5 minutes to lyse the cells.
(§9) d) The cell plate was placed at room temperature for 20 minutes to stabilize the luminescence signal.
(§10) e) The luminescence value was read.
(§11) The data were analyzed using GraphPad Prism 5.0 software, fitted with nonlinear S-curve regression to give dose-response curves, and IC50 values were calculated therefrom.

Ba/F3 SLC34A2-ROS1-WT = target: T8, Ba/F3 SLC34A2-ROS1-WT (Homo sapiens, UniProt P08922); assay: as above; format: cell-based; conditions: read-out: Half maximal inhibitory concentration IC50 of cells, Ba/F3 SLC34A2-ROS1-WT
T8 construct: fused on or other part: N-terminal part of SLC34A2 as fusion partner (part of the key); O95436 (Sodium-dependent phosphate transport protein 2B)
Method: as §2, §3, §4, §5, §6, §7, §8, §9, §10, §11

BaF3 LMNA-NTRK1-G595R = target: T9, BaF3 LMNA-NTRK1-G595R (Homo sapiens, UniProt P04629, G595R, cells depend on it); assay: as above; format: cell-based; conditions: read-out: Half maximal inhibitory concentration IC50 of cells, BaF3 LMNA-NTRK1-G595R
T9 construct: fused on or other part: N-terminal part of LMNA as fusion partner (part of the key); P02545 (Prelamin-A/C)
T9 sequence (P04629 whole entry G595R, the tested form may be a part): as the sequence (P04629 whole entry, stated change not applied, the tested form may be a part) above, with G595R counted along it
Method: as §2, §3, §4, §5, §6, §7, §8, §9, §10, §11

BaF3 ETV6-NTRK3-G623R = target: T10, BaF3 ETV6-NTRK3-G623R (Homo sapiens, UniProt Q16288, G623R, cells depend on it); assay: as above; format: cell-based; conditions: read-out: Half maximal inhibitory concentration IC50 of cells, BaF3 ETV6-NTRK3-G623R
T10 construct: fused on or other part: N-terminal part of ETV6 (TEL) as fusion partner (part of the key); P41212 (Transcription factor ETV6)
T10 sequence (Q16288 whole entry G623R, the tested form may be a part): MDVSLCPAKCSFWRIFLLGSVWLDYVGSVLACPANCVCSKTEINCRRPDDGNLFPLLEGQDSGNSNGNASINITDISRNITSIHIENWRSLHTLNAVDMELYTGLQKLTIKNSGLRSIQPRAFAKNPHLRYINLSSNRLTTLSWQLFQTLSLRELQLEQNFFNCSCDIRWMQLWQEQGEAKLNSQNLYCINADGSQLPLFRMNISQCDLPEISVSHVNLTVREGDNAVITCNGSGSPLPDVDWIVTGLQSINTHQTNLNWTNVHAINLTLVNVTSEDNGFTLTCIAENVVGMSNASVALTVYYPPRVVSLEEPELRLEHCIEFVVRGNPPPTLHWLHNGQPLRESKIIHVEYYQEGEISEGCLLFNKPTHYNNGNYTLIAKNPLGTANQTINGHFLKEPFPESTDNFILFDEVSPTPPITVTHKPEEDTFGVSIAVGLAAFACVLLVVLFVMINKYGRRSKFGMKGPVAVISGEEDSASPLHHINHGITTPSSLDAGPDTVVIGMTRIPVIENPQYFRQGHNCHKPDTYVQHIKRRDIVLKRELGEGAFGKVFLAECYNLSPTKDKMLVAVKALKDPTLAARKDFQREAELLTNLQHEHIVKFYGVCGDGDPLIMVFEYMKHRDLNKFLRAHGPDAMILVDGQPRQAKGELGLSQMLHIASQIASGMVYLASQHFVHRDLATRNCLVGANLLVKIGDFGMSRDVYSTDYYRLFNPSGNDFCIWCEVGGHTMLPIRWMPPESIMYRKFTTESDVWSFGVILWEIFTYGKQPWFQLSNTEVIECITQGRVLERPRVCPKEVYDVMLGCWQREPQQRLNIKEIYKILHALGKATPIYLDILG
Method: as §2, with “kit. In this test, the cell lines used are Ba/F3 LMNA-NTRK1-WT, Ba/F3 LMNA-NTRK1-F589L, BaF3 LMNA-NTRK1-G595R, BaF3 LMNA-NTRK1-G667A, BaF3 ETV6-NTRK3-WT, BaF3 ETV6-NTRK3-G623R, and Ba/F3 SLC34A2-ROS1-WT stable cell strains, 5000 cells/well.” for “kit.”
as §3, §4
c) Cells in the 96-well plate were incubated overnight at 37° C. with 5% CO2 and 95% humidity.
as §5
b) The cells in the 96-well plate added with compound were incubated for 72 hours at 37° C. with 5% CO2 and 95% humidity, followed by the CTG (CellTiter-Glo) analysis.
as §6, §7, §8, §9, §10, §11

T1 sequence (P04629 33-796): as the sequence (P04629 33-796 G667C) above, with C635G counted along it

Compound | IC50 (TrkA) [nM] | IC50 (Ros1) [nM] | IC50 (TrkA-G667C) [nM] | IC50 (TrkA-G595R) [nM] | IC50 (TrkC) [nM] | IC50 (ALK) [nM] | other results
O=C1NC2(CC2)COc2ncc(F)cc2C2COCCN2c2ccn3ncc1c3n2 (single isomer, unassigned) [WX001A] | > 1000 |  |  |  |  |  | 
O=C1NC2(CC2)COc2ccc(F)cc2C2CCCCN2c2ccn3ncc1c3n2 (single isomer, unassigned) [WX002A] | 3.2 | 0.2 | 0.7 | 2.1 | 0.2 | 18.5 | GI50 (Ba/F3 LMNA-NTRK1-WT): 0.2 nM; GI50 (Ba/F3 SLC34A2-ROS1-WT): 12.6 nM; GI50 (BaF3 LMNA-NTRK1-G595R): 0.4 nM; GI50 (BaF3 ETV6-NTRK3-G623R): 5.8 nM
O=C1NC2(CC2)CNc2ncc(F)cc2C2COCCN2c2ccn3ncc1c3n2 (single isomer, unassigned) [WX010A] | 4.1 | 28.7 | 189 | 8.9 | 0.3 | > 1000 | 
O=C1NC2(CC2)CNc2ncc(F)cc2C2COCCN2c2ccn3ncc1c3n2 (single isomer, unassigned) [WX010B] | > 1000 |  |  |  |  |  | 
O=C1NC2(CC2)COc2ccc(F)cc2[C@@H]2CCCCN2c2ccn3ncc1c3n2 [WX002B] | 526 |  |  |  |  |  | 
C[C@H]1CNC(=O)c2cnn3ccc(nc23)N2CCOC[C@H]2c2cc(F)cnc2O1 [WX004A] | 441 |  |  |  |  |  | 

Source: US20210403485A1, “PYRAZOLOPYRIMIDINE DERIVATIVE AS SELECTIVE TRK INHIBITOR” (SHANDONG LUYE PHARMACEUTICAL CO., LTD., priority 2018, published 2021)
